Results published in ChEMBL document CHEMBL1144227, “2,2'-Pyridoin derivatives protect HL-60 cells against oxidative stress” (Bioorg Med Chem Lett, 2008).
Active and inactive are the calls of the source. The rule behind the calls is not given here.

How the values were obtained:
HL-60 [1] = test: Radical scavenging activity in human HL-60 cells assessed as reduction of hydrogen peroxide-induced ROS generation at 30 uM after 1 hr by 2',7'-dichlorofluorescein diacetate based flow cytometry; type: functional, cell-based
HL-60 [2] = test: Toxicity against human HL-60 cells at 60 uM after 24 hrs by trypan blue exclusion assay; type: cell-based; settings: hl-60, 24 h
HL-60 [3] = test: Cytoprotective activity against hydrogen peroxide-induced cell death in human HL-60 cells assessed as cell viability at 30 uM after 24 hrs by trypan blue exclusion assay; type: functional; settings: for viability at 30 µM: HL-60, 24 h, read-out: Activity
[4] = Antioxidant activity assessed as inhibition of lipid peroxidation; type: functional
HL-60 [5] = test: Toxicity against human HL-60 cells at 100 uM after 24 hrs by trypan blue exclusion assay; type: cell-based; settings: hl-60, 24 h
HL-60 [6] = test: Radical scavenging activity in human HL-60 cells assessed as reduction of hydrogen peroxide-induced ROS generation at 30 uM administered 3 hrs before H2O2 challenge measured after 1 hr by 2',7'-dichlorofluorescein diacetate based flow cytometry; type: functional, cell-based

SMILES | Activity (HL-60 [1]) | Activity (HL-60 [2]) | viability at 30 µM (HL-60 [3]) [%] | Activity [4] | Activity (HL-60 [3]) | Activity (HL-60 [5]) | Activity (HL-60 [6])
Cc1ccc(/C(O)=C(\O)c2ccc(C)cn2)nc1 | Active | Non-toxic | 51.9 | Active |  |  | 
COc1cccc(C(=O)C(=O)c2cccc(OC)n2)n1 |  |  |  |  | Active | Non-toxic | 
COc1cccc(/C(O)=C(\O)c2cccc(OC)n2)n1 | Active |  | 51.9 | Active |  | Non-toxic | 
COc1ccc(/C(O)=C(\O)c2ccc(OC)cn2)nc1 | Active | Non-toxic | 51.9 | Active |  |  | 
Cc1cccc(/C(O)=C(\O)c2cccc(C)n2)n1 | Active |  | 51.9 |  |  | Non-toxic | 
Cc1ccc(C(=O)C(=O)c2ccc(C)cn2)nc1 |  |  |  |  | Active | Non-toxic | 
Cc1cccc(C(=O)C(=O)c2cccc(C)n2)n1 |  |  |  |  | Active | Non-toxic | 
O=C1O[C@H]([C@@H](O)CO)C(O)=C1O [ASCORBIC ACID] | Active |  | 37.9 |  |  |  | Active
COc1ccc(C(=O)C(=O)c2ccc(OC)cn2)nc1 |  |  |  |  | inactive | Non-toxic | 
O=C(C(=O)c1ccccn1)c1ccccn1 |  |  |  |  | Active | Non-toxic | 
Cc1cc(C(C)(C)C)c(O)c(C(C)(C)C)c1 [BUTYLATED HYDROXYTOLUENE] |  |  |  |  |  | Toxic | 
O/C(=C(/O)c1ccccn1)c1ccccn1 | Active |  | 42.1 |  |  | Non-toxic | 
